According to patent publication US9078901B2, “Pharmacological modulation of telomere length in cancer cells for prevention and treatment of cancer” (priority 2007, dated 2015):
“Also recorded” adds a separate entry of the source.

Columns and labels:
U-2 OS cells = test: Flow-FISH telomere length (PNA-FITC probe) and PI cell cycle analysis in treated telomerase negative U-2 OS cells; assay type: cell-based, human; details: for apoptosis (flow-FISH) / cell cycle (PI) / telomere length (flow-FISH): ACV 3 μM; for apoptosis (flow-FISH) / cell cycle (PI) / telomere length (flow-FISH) / apoptosis / cell cycle distribution / telomere length: GCV 1.5 μM, PCV 1.5 μM; for apoptosis / cell cycle distribution / telomere length: after 10 and 14 days of treatments, ACV 3.0 μM
Procedure: (§1) Both telomerase positive (HeLa) telomerase negative (U-2 OS) cell lines were used. Appropriate assays were performed to detect and confirm telomerase/L1RT specific activity in these cells.
(§2) Telomere length in ACV, GCV and PCV treated and untreated cell lines was measured by flow cytometry with a telomere-specific peptide nucleic acid (PNA) probe^23,24. To determine cell cycle distribution, cells were stained with propidium iodide (PI)^23.
(§3) The U-2 OS (osteosarcoma) and HeLa (uterine cervix) cell lines used in this study were obtained from American Type Culture Collection (Rockville, Md.). Cells were cultured in D-MEM media supplemented with 10% fetal calf serum at 37° C. in a humidified atmosphere of 5% CO2. For treatment of the cells with ACV, the media was supplemented with 3 μM of acyclovir (acyclovir, TEVA Pharm. Ind. Ltd, Israel). For treatment of the cells with GCV, the media was supplemented with 1.5 μM of GCV (Cymevene, Hoffman-La Roche). For treatment of the cells with PCV, the media was supplemented with 1.5 μM of PCV (penciclovir, Merck & Co.).
(§4) For telomere length measurement by flow cytometry, cells were stained with telomere specific FITC conjugated (C3TA2)3 PNA (Applied Biosystems) probe and contrastained with 0.06 μg/ml PI as described by Rufer et al., 1998, Telomere length dynamics in human lymphocyte subpopulations were measured by flow cytometry, Nat. Biotechnol. 16, 743-747.

HeLa cells [1] = test: Flow-FISH telomere length (PNA-FITC probe) and PI cell cycle analysis in treated telomerase positive HeLa cells; assay type: cell-based, human; details: for apoptosis (flow-FISH) / cell cycle (PI) / telomere length (flow-FISH): 10 days of treatment, ACV 3 μM, FIG. 1; for apoptosis (flow-FISH) / cell cycle (PI) / telomere length (flow-FISH) / apoptosis / cell cycle distribution / telomere length: GCV 1.5 μM, PCV 1.5 μM; for apoptosis / cell cycle distribution / telomere length: after 10 and 14 days of treatments, ACV 3.0 μM; for cell cycle distribution (PI): treated for 14 days
Procedure: as §1, §2, §3, §4

HeLa cells [2] = test: Tumor growth progression assay, s.c. HeLa xenografts in nude mice; assay type: in vivo, nude (nu/nu) mice; details: 1×10^6 HeLa cells s.c., GCV 2 mg/ml in drinking water ad libitum from day zero
Source text: Exemplary in vivo assays of anti-tumor efficacy of ACV, PCV and/or GCV using nude mice subcutaneous (s.c.) tumors grown from the human HeLa cancer cell line (i.e., xenografts bearing mice) as cancer models are described below. Human cancerous cells needed for in vivo assays may be prepared, for example, as follows: Telomerase positive HeLa human cell line and telomerase negative U-2 OS human cell line are obtained from public sources. Cells are maintained in D-MEM media supplemented with 10% foetal calf serum at 37° C. in a humidified atmosphere of 5% CO2. For in vivo assay, appropriate host, e.g., nude (nu/nu) mice of about 5-7 weeks old are obtained and maintained in pathogen-free conditions. Approximately, 1×10^6 HeLa cells (and/or U-2 OS cells) contained in 200 μl of serum-free media are delivered to all animals, briefly anaesthetized with Metofane, by subcutaneous (s.c.) injection in flank. Then the mice are divided into experimental group and control group. Appropriate concentrations of ACV, PCV and/or GCV are used for tumor growth progression or regression assays. In one embodiment, impairment of s.c. tumor growth or time to progression rather than decrease in size of an established tumor (regression) is assessed. […] Tumors are measured every 2-3 days. […] Tumor volume is calculated with formula 4/3πr^3, where r is the radius of the tumor.

| Structure (SMILES) | apoptosis (flow-FISH) (U-2 OS cells; 10 days of treatment, FIG. 2) | cell cycle (PI) (U-2 OS cells; 10 days of treatment, FIG. 2) | telomere length (flow-FISH) (U-2 OS cells; 10 days of treatment, FIG. 2) | cell cycle (PI) (U-2 OS cells; 14 days of treatment) | apoptosis (flow-FISH) (U-2 OS cells; 14 days of treatment, FIG. 3) | telomere length (flow-FISH) (U-2 OS cells; 14 days of treatment, FIG. 3) | apoptosis (U-2 OS cells) | cell cycle distribution (U-2 OS cells) | telomere length (U-2 OS cells) | apoptosis (flow-FISH) (HeLa cells [1]) | cell cycle (PI) (HeLa cells [1]) | telomere length (flow-FISH) (HeLa cells [1]) | apoptosis (HeLa cells [1]) | cell cycle distribution (HeLa cells [1]) | telomere length (HeLa cells [1]) | cell cycle distribution (PI) (HeLa cells [1]) | onset of changes in cell cycle distribution (U-2 OS cells; ACV treatment) | onset of changes in cell cycle distribution (HeLa cells [1]; ACV treatment) | s.c. tumor development (HeLa cells [2]) |
| --- | --- | --- | --- | --- | --- | --- | --- | --- | --- | --- | --- | --- | --- | --- | --- | --- | --- | --- | --- |
| Nc1nc2c(ncn2CCC(CO)CO)c(=O)[nH]1 [PCV] | massive apoptosis | changes in cell cycle | decrease in telomere length | changes in cell cycle; also recorded: G2 arrest of cell cycle | massive apoptosis | decrease in telomere length | massive apoptosis | G2 arrest | telomere shortening | massive apoptosis | changes in cell cycle | decrease in telomere length | massive apoptosis | G2 arrest | telomere shortening | G2 arrest of cell cycle | – | – | – |
| Nc1nc2c(ncn2COCCO)c(=O)[nH]1 [ACV, 9-[2(hydromethoxy)-methyl]guanine] | massive apoptosis | changes in cell cycle | decrease in telomere length | changes in cell cycle; also recorded: G2 arrest of cell cycle | massive apoptosis | decrease in telomere length | massive apoptosis | G2 arrest | telomere shortening | massive apoptosis | changes in cell cycle | decrease in telomere length | massive apoptosis | G2 arrest | telomere shortening | G2 arrest of cell cycle | could be detected after only few days | could be detected after only few days | – |
| Nc1nc(O)c2ncn(COC(CO)CO)c2n1 [GCV] | massive apoptosis | changes in cell cycle | decrease in telomere length | changes in cell cycle; also recorded: G2 arrest of cell cycle | massive apoptosis | decrease in telomere length | massive apoptosis | G2 arrest | telomere shortening | massive apoptosis | changes in cell cycle | decrease in telomere length | massive apoptosis | G2 arrest | telomere shortening | G2 arrest of cell cycle | – | – | remain tumor free |
